Measured values from ChEMBL document CHEMBL1201862, “PubChem BioAssay data set” (2004).
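48-hour exposure; five concentrations; linearly interpolated endpoints. Here, GI50 denotes the concentration required for 50% inhibition of growth.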 Active and inactive are the calls of the source. Cut-off read from the data, not from the text of the source: active = GI50 up to about 1.1 µM and inactive = higher.

Key:
Assay in all cases: NCI anticancer screen, dose series, 48 h
[1] = test system: OVCAR-4
[2] = test system: NCI-H460
[3] = test system: T47D
[4] = test system: LOX IMVI
[5] = test system: SF-295
[6] = test system: COLO 205
[7] = test system: SNB-19
[8] = test system: SW-620
[9] = test system: TK-10
[10] = test system: HL-60
[11] = test system: UACC-257
[12] = test system: SN12C
[13] = test system: SK-MEL-28
[14] = test system: MCF7
[15] = test system: HCT-15
[16] = test system: HOP-62
[17] = test system: SF-539
[18] = test system: OVCAR-8
[19] = test system: HCC 2998
[20] = test system: NCI/ADR-RES

O=C(COc1ccccc1)N(C(=O)N1CCN(c2ccccc2)CC1)S(=O)(=O)c1ccccc1
GI50 [1]: > 100 µM (inactive)
GI50 [2]: 71.9 µM (inactive)
GI50 [3]: 34.8 µM (inactive)
GI50 [4]: 77.4 µM (inactive)
GI50 [5]: > 100 µM (inactive)
GI50 [6]: > 100 µM (inactive)
GI50 [7]: 83.2 µM (inactive)
GI50 [8]: 42.5 µM (inactive)
GI50 [9]: > 100 µM (inactive)
GI50 [10]: 83.4 µM (inactive)
GI50 [11]: > 100 µM (inactive)
GI50 [12]: 53 µM (inactive)
GI50 [13]: > 100 µM (inactive)
GI50 [14]: 45.9 µM (inactive)
GI50 [15]: 47.5 µM
GI50 [16]: 72.8 µM (inactive)
GI50 [17]: > 100 µM (inactive)
GI50 [18]: 35.2 µM (inactive)
GI50 [19]: > 100 µM (inactive)
GI50 [20]: 56.8 µM (inactive)

Cc1nc2ccccc2n1COC(Cn1ccnc1)c1ccc(Cl)cc1Cl (stereo not given)
GI50 [1]: 30.4 µM (inactive)
GI50 [2]: 15.3 µM (inactive)
GI50 [3]: 41.7 µM (inactive)
GI50 [4]: 50.8 µM (inactive)
GI50 [5]: 71 µM (inactive)
GI50 [6]: 39.3 µM (inactive)
GI50 [7]: > 100 µM (inactive)
GI50 [8]: > 100 µM (inactive)
GI50 [9]: 83.9 µM (inactive)
GI50 [10]: 30.5 µM (inactive)
GI50 [11]: 31 µM (inactive)
GI50 [12]: > 100 µM (inactive)
GI50 [13]: > 100 µM (inactive)
GI50 [14]: 41.7 µM (inactive)
GI50 [15]: 34.8 µM
GI50 [16]: 57.3 µM (inactive)
GI50 [17]: > 100 µM (inactive)
GI50 [18]: 94 µM (inactive)
GI50 [19]: 76 µM (inactive)
GI50 [20]: 99.8 µM (inactive)

CCOP(=O)(OCC)C(C)(CC)NC1=NC(C(F)(F)F)(C(F)(F)F)NC(=O)N1 (stereo not given)
GI50 [1]: > 100 µM (inactive)
GI50 [2]: > 100 µM (inactive)
GI50 [3]: 82 µM (inactive)
GI50 [4]: > 100 µM (inactive)
GI50 [5]: > 100 µM (inactive)
GI50 [6]: > 100 µM (inactive)
GI50 [7]: > 100 µM (inactive)
GI50 [8]: > 100 µM (inactive)
GI50 [9]: > 100 µM (inactive)
GI50 [10]: > 100 µM (inactive)
GI50 [11]: > 100 µM (inactive)
GI50 [12]: > 100 µM (inactive)
GI50 [13]: > 100 µM (inactive)
GI50 [14]: > 100 µM (inactive)
GI50 [15]: > 100 µM
GI50 [16]: > 100 µM (inactive)
GI50 [17]: > 100 µM (inactive)
GI50 [18]: > 100 µM (inactive)
GI50 [19]: > 100 µM (inactive)
GI50 [20]: > 100 µM (inactive)

COc1ccc2nc3cc(Cl)ccc3c(NCCCN(CCCl)CCCl)c2c1
GI50 [1]: 0.0845 µM (active)
GI50 [2]: < 0.01 µM (active)
GI50 [3]: < 0.01 µM (active)
GI50 [4]: 0.0126 µM (active)
GI50 [5]: 0.0142 µM (active)
GI50 [6]: < 0.01 µM (active)
GI50 [7]: 0.0225 µM (active)
GI50 [8]: 0.0116 µM (active)
GI50 [9]: 0.452 µM (active)
GI50 [10]: < 0.01 µM (active)
GI50 [11]: 0.122 µM (active)
GI50 [12]: 0.014 µM (active)
GI50 [13]: 0.197 µM (active)
GI50 [14]: < 0.01 µM (active)
GI50 [15]: 0.0253 µM
GI50 [16]: 0.0301 µM (active)
GI50 [17]: 0.0111 µM (active)
GI50 [18]: 0.0125 µM (active)
GI50 [19]: 0.0596 µM (active)
GI50 [20]: < 0.01 µM (active)
